Experimental data from patent publication US5534498A, “Trypsin inhibitors” (Corvas International, Inc., priority 1993, dated 1996).
Residues, ends and D or L forms follow the SMILES beside them. *: point of attachment. Boc = CC(C)(C)OC(=O)*

What was measured:
Assay type in all cases: biochemical
human Factor Xa = biological target: T1, human Factor Xa (Homo sapiens, UniProt P00742); test: Factor Xa assay (Pefachrome Xa substrate)
T1 construct: 50 μL 30 nM human Factor Xa
Procedure: (§1) The specificity of the peptide aldehydes (8 through 12) was determined in vitro by measurement of their IC50 against other enzymes involved in hemostasis. A specific concentration of enzyme and its substrate were challenged with varying concentrations of inhibitor. […] Specific assay procedures used are presented below.
(§2) 96-well microtiter plates were prepared for use in these assays by incubating each well with 300 μL 1% bovine serum albumin (in deionized water) for 30 minutes at 37° C., then washing three times with deionized water.
Enzyme activity was determined using as substrate, Pefachrome Xa [N-methoxycarbonyl-D-cyclohexylalanyl-L-glycyl-L-arginine p-niroanilide acetate], purchased from Centerchem, Inc. The substrate was made up in deionized water prior to use.

[1] = biological target: T2, Activated human Protein C (Homo sapiens, UniProt P04070); test: Protein C assay (Pefachrome PC substrate)
T2 construct: from tissue
T2 sequence (P04070 212-461 limits assumed): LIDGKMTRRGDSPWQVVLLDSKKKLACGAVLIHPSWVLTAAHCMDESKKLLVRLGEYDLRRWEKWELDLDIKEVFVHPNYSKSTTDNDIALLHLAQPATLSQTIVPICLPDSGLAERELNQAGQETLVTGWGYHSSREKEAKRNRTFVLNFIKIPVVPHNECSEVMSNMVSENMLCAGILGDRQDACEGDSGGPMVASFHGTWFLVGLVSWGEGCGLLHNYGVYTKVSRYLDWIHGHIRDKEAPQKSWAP
T2 sequence (P04070 43-197 partner limits assumed): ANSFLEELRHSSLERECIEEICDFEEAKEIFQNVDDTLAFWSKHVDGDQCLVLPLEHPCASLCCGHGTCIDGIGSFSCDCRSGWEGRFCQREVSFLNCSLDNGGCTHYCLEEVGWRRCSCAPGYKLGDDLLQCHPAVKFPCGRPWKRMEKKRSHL
Procedure: as §1, §2
Enzyme activity was determined using as substrate, Pefachrome PC [δ-carbobenzoloxy-D-lysyl-L-prolyl-L-arginine-p-nitroanilide], purchased from Centerchem, Inc. The substrate was made up in deionized water prior to use. Protac used to activate Protein C was obtained from American Diagnostics.

bovine trypsin = biological target: T3, bovine trypsin (Bos taurus, UniProt P00760); test: Trypsin assay, IC50 (S-2222 substrate)
T3 sequence (P00760 24-246): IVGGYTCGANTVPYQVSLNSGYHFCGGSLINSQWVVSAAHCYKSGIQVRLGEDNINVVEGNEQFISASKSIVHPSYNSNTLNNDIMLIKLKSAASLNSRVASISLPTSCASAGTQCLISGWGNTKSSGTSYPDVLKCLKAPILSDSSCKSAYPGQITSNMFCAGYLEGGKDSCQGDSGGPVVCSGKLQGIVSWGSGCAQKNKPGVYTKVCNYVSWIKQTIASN
Procedure: as §1, §2
The substrate was made up in deionized water prior to use.

Factor VIIa:rTF complex = biological target: T4, Factor VIIa:rTF complex (Homo sapiens, UniProt P08709); test: Factor VIIa assay (S-2288 substrate)
T4 construct: 2.5 ml 400 nMhuman Factor VIIa
T4 sequence (P08709 213-466 limits assumed): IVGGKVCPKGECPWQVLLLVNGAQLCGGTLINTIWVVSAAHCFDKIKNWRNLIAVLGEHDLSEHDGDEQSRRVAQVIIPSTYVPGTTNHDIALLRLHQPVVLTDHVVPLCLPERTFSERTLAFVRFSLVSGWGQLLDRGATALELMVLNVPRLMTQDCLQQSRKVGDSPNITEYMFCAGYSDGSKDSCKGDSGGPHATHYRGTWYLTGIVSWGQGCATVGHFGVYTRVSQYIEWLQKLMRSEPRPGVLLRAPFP
T4 sequence (P08709 61-212 partner limits assumed): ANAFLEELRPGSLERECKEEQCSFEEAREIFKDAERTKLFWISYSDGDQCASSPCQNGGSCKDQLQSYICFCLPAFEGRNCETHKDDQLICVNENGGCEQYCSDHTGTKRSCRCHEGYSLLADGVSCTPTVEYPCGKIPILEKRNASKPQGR
T4 sequence (P13726 33-295 partner): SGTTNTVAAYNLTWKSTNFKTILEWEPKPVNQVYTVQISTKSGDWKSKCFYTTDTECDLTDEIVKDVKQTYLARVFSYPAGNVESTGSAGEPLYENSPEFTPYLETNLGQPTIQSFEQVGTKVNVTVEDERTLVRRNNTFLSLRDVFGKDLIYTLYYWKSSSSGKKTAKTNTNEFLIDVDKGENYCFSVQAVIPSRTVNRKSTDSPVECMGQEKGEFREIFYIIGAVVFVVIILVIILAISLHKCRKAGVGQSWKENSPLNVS
Procedure: The specificity of the peptide aldehydes (8 through 12) was determined in vitro by measurement of their IC50 against other enzymes involved in hemostasis. A specific concentration of enzyme and its substrate were challenged with varying concentrations of inhibitor. IC50 is that concentration of inhibitor giving 50% inhibition of substrate turnover, under the assay conditions. Specific assay procedures used are presented below.
as §2
Enzyme activity was determined using as substrate, S-2288 [D-isoleucyl-L-prolyl-L-arginine-p-nitroanilide dihydrochloride], purchased from Kabi Diagnostica. The substrate was made up in deionized water prior to use.
Both solutions were then incubated for 30 minutes at room temperature before use in the assay.
The assay was run by combining in appropriate wells 50 μL inhibitor in TBS or TBS alone and 100 μL of Factor VIIa:rTF complex or background control, incubating this mixture for 30 minutes at room temperature, adding 50 μL of 2 mM S-2288, incubating for an additional 30 to 60 minutes at room temperature, then reading the absorbance of the wells at 405 nm on a microtiter plate reader set with background substraction at 650 nm.

[2] = 30 min preincubation, room temperature, tested 0.025-25 μM, Inact. = no inhibition at highest concentration
[3] = [IC50 for Trypsin/IC50 for other enzyme]×100, lower = more trypsin selective

T1 sequence (P00742 235-488 limits assumed): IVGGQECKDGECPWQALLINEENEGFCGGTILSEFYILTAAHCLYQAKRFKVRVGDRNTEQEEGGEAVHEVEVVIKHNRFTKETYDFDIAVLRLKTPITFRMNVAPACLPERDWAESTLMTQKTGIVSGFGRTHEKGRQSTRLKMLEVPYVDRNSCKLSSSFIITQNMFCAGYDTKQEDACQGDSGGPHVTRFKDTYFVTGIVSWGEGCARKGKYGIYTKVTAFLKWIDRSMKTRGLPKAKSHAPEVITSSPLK
T1 sequence (P00742 41-179 partner limits assumed): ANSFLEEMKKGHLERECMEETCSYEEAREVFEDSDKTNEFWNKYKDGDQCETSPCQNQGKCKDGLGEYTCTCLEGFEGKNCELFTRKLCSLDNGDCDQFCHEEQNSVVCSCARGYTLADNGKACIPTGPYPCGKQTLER

IC50 (human Factor Xa; [2]): > 25000 nM | Calculated % Selectivity Xa (human Factor Xa; [3]): < 0.06% | IC50 Protein C [1, 2]: Inact. | Calculated % Selectivity Protein C [1, 3]: 0% | IC50 (bovine trypsin; 30 min preincubation, room temperature, tested 0.025-25 μM): 14 nM | Calculated % Selectivity Trypsin (bovine trypsin; trypsin relative to itself (reference, 100 by definition)): 100% | IC50 VIIA (Factor VIIa:rTF complex; [2]): Inact. | Calculated % Selectivity VIIa (Factor VIIa:rTF complex; [3]): 0%
SMILES: CC(C)(C)OC(=O)N[C@@H](CC(=O)O)C(=O)N1CCC[C@H]1C(=O)N[C@H](C=O)CCCNC(=N)N [Compound 9, N-t-butyloxycarbonyl-L-Asp-L-Pro-L-argininal] (Boc-Asp-Pro-Arg-aldehyde)
